{"source": "patent US20060046968A1", "about": "“Prodrug substituted benzoxazoles as estrogenic agents” (priority 2004, published 2006)", "format_in_all_cases": "in vivo", "key": {"Male HLA-B27 rats [1]": {"system": "Male HLA-B27 rats", "assay": "HLA rat test for inflammatory bowel disease: stool character (3 = diarrhea; 2 = soft stool; 1 = normal stool)", "details": "Study C"}, "[2]": {"system": "Sexually immature Sprague-Dawley rats", "assay": "Rat uterotrophic test procedure (Procedure 1)", "details": "compound 2 mg/rat + 17α-ethinyl, 17β-estradiol 0.06 μg/rat s.c. (antagonist mode)"}, "Male HLA-B27 rats [3]": {"system": "Male HLA-B27 rats", "assay": "HLA-B27 rat model of arthritis: joint scores", "details": "Study 1, oral 20 mg/kg once per day (10 mg/kg earlier)"}}, "data": [{"molecule": "C=Cc1cc(O)cc2nc(-c3ccc(O)c(F)c3)oc12", "note": "[Example 24, 2-(3-FLUORO-4-HYDROXYPH ENYL)-7-VI NYL-1,3-BENZOXAZOL-5-OL]", "values": [{"measurement": "Stool Character (group's average score)", "setting": "Male HLA-B27 rats [1]; oral 10 mg/kg once per day, Day 16", "value": 1.75}, {"measurement": "Stool Character (group's average score)", "setting": "Male HLA-B27 rats [1]; oral 10 mg/kg once per day, Day 17", "value": 1.75}, {"measurement": "Stool Character (group's average score)", "setting": "Male HLA-B27 rats [1]; oral 10 mg/kg once per day, Day 18", "value": 1.75}, {"measurement": "Stool Character (group's average score)", "setting": "Male HLA-B27 rats [1]; oral 10 mg/kg once per day, Day 19", "value": 1.75}, {"measurement": "Stool Character (group's average score)", "setting": "Male HLA-B27 rats [1]; oral 10 mg/kg once per day, Day 20", "value": 1.75}, {"measurement": "Stool Character (group's average score)", "setting": "Male HLA-B27 rats [1]; oral 10 mg/kg once per day, Day 21", "value": 1.75}, {"measurement": "Stool Character (group's average score)", "setting": "Male HLA-B27 rats [1]; oral 10 mg/kg once per day, Day 22", "value": 1.75}, {"measurement": "Stool Character (group's average score)", "setting": "Male HLA-B27 rats [1]; oral 10 mg/kg once per day, Day 23", "value": 1.75}, {"measurement": "Stool Character (group's average score)", "setting": "Male HLA-B27 rats [1]; oral 10 mg/kg once per day, Day 24", "value": 2}, {"measurement": "Stool Character (group's average score)", "setting": "Male HLA-B27 rats [1]; oral 20 mg/kg once per day (10 mg/kg earlier), Day 25", "value": 2}, {"measurement": "Stool Character (group's average score)", "setting": "Male HLA-B27 rats [1]; oral 20 mg/kg once per day (10 mg/kg earlier), Day 26", "value": 2.25}, {"measurement": "Stool Character (group's average score)", "setting": "Male HLA-B27 rats [1]; oral 20 mg/kg once per day (10 mg/kg earlier), Day 27", "value": 1.75}, {"measurement": "Stool Character (group's average score)", "setting": "Male HLA-B27 rats [1]; oral 20 mg/kg once per day (10 mg/kg earlier), Day 28", "value": 1.75}, {"measurement": "Stool Character (group's average score)", "setting": "Male HLA-B27 rats [1]; oral 20 mg/kg once per day (10 mg/kg earlier), Day 29", "value": 1.5}, {"measurement": "Stool Character (group's average score)", "setting": "Male HLA-B27 rats [1]; oral 20 mg/kg once per day (10 mg/kg earlier), Day 30", "value": 1.5}, {"measurement": "Stool Character (group's average score)", "setting": "Male HLA-B27 rats [1]; oral 20 mg/kg once per day (10 mg/kg earlier), Day 31", "value": 1.5}, {"measurement": "Stool Character (group's average score)", "setting": "Male HLA-B27 rats [1]; oral 20 mg/kg once per day (10 mg/kg earlier), Day 32", "value": 1.5}, {"measurement": "Stool Character (group's average score)", "setting": "Male HLA-B27 rats [1]; oral 20 mg/kg once per day (10 mg/kg earlier), Day 33", "value": 1.75}, {"measurement": "Stool Character (group's average score)", "setting": "Male HLA-B27 rats [1]; oral 20 mg/kg once per day (10 mg/kg earlier), Day 34", "value": 1.75}, {"measurement": "Stool Character (group's average score)", "setting": "Male HLA-B27 rats [1]; oral 20 mg/kg once per day (10 mg/kg earlier), Day 35", "value": 1.5}, {"measurement": "Stool Character (group's average score)", "setting": "Male HLA-B27 rats [1]; oral 20 mg/kg once per day (10 mg/kg earlier), Day 36", "value": 1.5}, {"measurement": "Stool Character (group's average score)", "setting": "Male HLA-B27 rats [1]; oral 20 mg/kg once per day (10 mg/kg earlier), Day 37", "value": 1.25}, {"measurement": "Stool Character (group's average score)", "setting": "Male HLA-B27 rats [1]; oral 20 mg/kg once per day (10 mg/kg earlier), Day 38", "value": 1.75}, {"measurement": "Stool Character (group's average score)", "setting": "Male HLA-B27 rats [1]; oral 20 mg/kg once per day (10 mg/kg earlier), Day 39", "value": 1.75}, {"measurement": "Stool Character (group's average score)", "setting": "Male HLA-B27 rats [1]; oral 20 mg/kg once per day (10 mg/kg earlier), Day 40", "value": 1.5}, {"measurement": "Stool Character (group's average score)", "setting": "Male HLA-B27 rats [1]; oral 20 mg/kg once per day (10 mg/kg earlier), Day 41", "value": 1.75}, {"measurement": "Stool Character (group's average score)", "setting": "Male HLA-B27 rats [1]; oral 20 mg/kg once per day (10 mg/kg earlier), Day 42", "value": 1.5}, {"measurement": "Stool Character (group's average score)", "setting": "Male HLA-B27 rats [1]; oral 20 mg/kg once per day (10 mg/kg earlier), Day 43", "value": 1.5}, {"measurement": "Stool Character (group's average score)", "setting": "Male HLA-B27 rats [1]; oral 20 mg/kg once per day (10 mg/kg earlier), Day 44", "value": 1.5}, {"measurement": "Stool Character (group's average score)", "setting": "Male HLA-B27 rats [1]; oral 20 mg/kg once per day (10 mg/kg earlier), Day 45", "value": 1.25}, {"measurement": "Stool Character (group's average score)", "setting": "Male HLA-B27 rats [1]; oral 20 mg/kg once per day (10 mg/kg earlier), Day 46", "value": 1.25}, {"measurement": "mean uterine weight ± SEM", "setting": "[2]", "value": "80.7 ± 5.3", "unit": "mg"}, {"measurement": "Joint inflammation score", "setting": "Male HLA-B27 rats [3]; Day 29", "value": 1.5}, {"measurement": "Joint inflammation score", "setting": "Male HLA-B27 rats [3]; Day 30", "value": 0.5}, {"measurement": "Joint inflammation score", "setting": "Male HLA-B27 rats [3]; Day 31", "value": 0.5}, {"measurement": "Joint inflammation score", "setting": "Male HLA-B27 rats [3]; Day 32", "value": 1.25}, {"measurement": "Joint inflammation score", "setting": "Male HLA-B27 rats [3]; Day 33", "value": 2}, {"measurement": "Joint inflammation score", "setting": "Male HLA-B27 rats [3]; Day 34", "value": 2.25}, {"measurement": "Joint inflammation score", "setting": "Male HLA-B27 rats [3]; Day 35", "value": 2}, {"measurement": "Joint inflammation score", "setting": "Male HLA-B27 rats [3]; Day 36", "value": 2.25}, {"measurement": "Joint inflammation score", "setting": "Male HLA-B27 rats [3]; Day 37", "value": 2}, {"measurement": "Joint inflammation score", "setting": "Male HLA-B27 rats [3]; Day 38", "value": 2.75}, {"measurement": "Joint inflammation score", "setting": "Male HLA-B27 rats [3]; Day 39", "value": 2.25}, {"measurement": "Joint inflammation score", "setting": "Male HLA-B27 rats [3]; Day 40", "value": 1.75}, {"measurement": "Joint inflammation score", "setting": "Male HLA-B27 rats [3]; Day 41", "value": 2}, {"measurement": "Joint inflammation score", "setting": "Male HLA-B27 rats [3]; Day 42", "value": 2.5}, {"measurement": "Joint inflammation score", "setting": "Male HLA-B27 rats [3]; Day 43", "value": 4.75}, {"measurement": "Joint inflammation score", "setting": "Male HLA-B27 rats [3]; Day 44", "value": 3}, {"measurement": "Joint inflammation score", "setting": "Male HLA-B27 rats [3]; Day 45", "value": 2.75}, {"measurement": "Joint inflammation score", "setting": "Male HLA-B27 rats [3]; Day 46", "value": 3.25}]}]}
